In US20220136068A1, “METHODS OF DETECTING AND TREATING VENETOCLAX-RESISTANT ACUTE MYELOID LEUKEMIA” (The Regents of the University of Colorado, A Body Corporate, priority 2019, published 2022):

Assays:
[1] = tested on: prim-AML ROS-low LSCs; experiment: In vitro viability of sorted ROS-low LSCs from primitive AML; assay type: cell-based, human; conditions: in vitro treatment
Procedure: (§1) FIG. 2 is a series of charts showing viability of sorted ROSlow LSCs from mono-AML (n=5) and prim-AML (n=7) after 24 hours in vitro treatment with venetoclax alone or in combination with a fixed dose of 1.5 μM azacitidine. Each data point was expressed as mean±SD of technical triplicates. All viability data were normalized to untreated control.
(§2) To understand if the lack of response by monocytic AML to VEN+AZA is driven by intrinsic mechanisms, VEN+AZA sensitivity was directly evaluated in vitro, where protection from extrinsic factors such as the microenvironment is minimal. For these experiments, a second cohort of AML specimens with sufficient material to allow for more robust in vitro experimentation was used (herein referred to as Research Cohort 2). Using the surface expression profile of CD117, CD11b, CD68 and CD64, the primitive or monocytic compartment was isolated for analysis (herein referred to as prim-AML or mono-AML, respectively). Prim-AML has the phenotype of CD117+/CD11b−/CD68−/CD64− and mono-AML is predominantly CD117−/CD11b+/CD68+/CD64+. The in vitro drug sensitivity of these populations is shown in FIG. 2 and closely correlates with relative responses observed for the Clinical Cohort.
(§3) The relative sensitivity of LSCs derived from primitive versus monocytic AML specimens was analyzed. […]

[2] = tested on: mono-AML ROS-low LSCs; experiment: In vitro viability / cell death of sorted ROS-low LSCs from monocytic AML; assay type: cell-based, human; conditions: 24 hours in vitro treatment; FIG. 2, FIG. 3
Procedure: as §1
FIG. 3 is a series of bar graphs viability of three mono-AMLs from the Research Cohort 2 after 24 hours in vitro treatment with various single or combinations drugs.
as §2, with “The in vitro drug sensitivity of these populations is shown in FIG. 2 and closely correlates with relative responses observed for the Clinical Cohort.” left out
as §3

| SMILES | sensitivity/resistance (viability) of prim-AML ROS-low LSCs [1] | sensitivity/resistance (viability) of mono-AML ROS-low LSCs [2] |
| --- | --- | --- |
| Nc1ncn([C@@H]2O[C@H](CO)[C@@H](O)[C@H]2O)c(=O)n1 [AZA, azacitidine] | sensitive |  |
| COCCn1c2c([n+](Cc3cnccn3)c1C)C(=O)c1ccccc1C2=O [YM155] | highly resistant | sensitive |
